Results as given in patent publication US20230255934A1, “NURR1 RECEPTOR MODULATORS AND USES THEREOF” (The Regents of the University of California, priority 2020, published 2023).

How the values were obtained:
th and vmat2 expression = settings: zebrafish; cited from earlier work
[1] = target: Nurr1 ligand binding domain (LBD) (Homo sapiens, UniProt P43354); settings: non-canonical ligand binding pocket, Cys566; cited from earlier work
[2] = target: T1, full-length Nurr1 (NBRE response element) (Mus musculus, UniProt Q06219); assay: Full-length Nurr1 NBRE luciferase reporter assay in MN9D cells; assay type: cell-based; settings: 6 h treatment
T1 construct: a cell line derived from dopaminergic neurons which endogenously expresses full length Nurr1 and its target genes; endogenous in cells; host or cells: MN9D TET-ON cells
Method: Luciferase Reporter Assays. These assays were executed using standard protocols. MN9D TET-ON cells (P5) were grown for 60-72 h (see above) before being seeded at 1-10^5 cell/well in 24-well plate in DMEM/F12+5% TET-ON approved FBS 3 h before transfection. Cells were transfected using Lipofectamine 2000 (Invitrogen) and plasmid DNAs according to manufacturer's instructions. Lipofectamine/DNA complexes were prepared in Opti-Mem medium (Gibco) and incubated with cells overnight. The Nurr1-LBD_Gal4-DBD expressing plasmid was prepared by subcloning the Nurr1 LBD fragment into […] plasmid (Clontech) containing GAL4 DBD. The reporter plasmid pGL4.35 (luc2P/9XGAL4 UAS/Hygro) Vector (Promega) contains nine repeats of GAL4 UAS (Upstream Activator Sequence) and drives transcription of the luciferase reporter gene luc2P in response to binding of Nurr-LBD_Gal4-DBD chimeric protein. The pRL-null (Promega) plasmid expressing renilla luciferase was used as an internal control. […] Alternatively, cells were co-transfected with the reporter plasmid NBREx3-POMC-Luc containing three copies of the NBRE sequence ([NT] ID NO:23)) subcloned into the pXP1-luc plasmid containing the minimal (positions -34 to +63) POMC promoter as described previously^7, and the pRL-null plasmid. […] Transfected cells were treated with increasing concentrations of 5-chloroindole or vehicle only for 6 h, after which time the media was aspirated and luciferase activity was measured. Cells from each well were incubated for 15 min with 220 μL/well of Dual-Glo® Luciferase Reagent (Promega) at room temperature upon rotation on the orbital shaker. […] Resulting solutions were transferred to a white opaque 96-well plate (65 μL/well; 3 wells/sample) and firefly luciferase activity was measured using Veritas Microplate Luminometer (Turner BioSystems, Sunnyvale, Calif.). […] Renilla luciferase activity was measured after 20 min of incubation of the plate inside the luminometer. Experimental values are expressed as the average of firefly/renilla luciferase activity±standard deviation (for three independent biological replicates). […]

T1 sequence (Q06219 whole entry): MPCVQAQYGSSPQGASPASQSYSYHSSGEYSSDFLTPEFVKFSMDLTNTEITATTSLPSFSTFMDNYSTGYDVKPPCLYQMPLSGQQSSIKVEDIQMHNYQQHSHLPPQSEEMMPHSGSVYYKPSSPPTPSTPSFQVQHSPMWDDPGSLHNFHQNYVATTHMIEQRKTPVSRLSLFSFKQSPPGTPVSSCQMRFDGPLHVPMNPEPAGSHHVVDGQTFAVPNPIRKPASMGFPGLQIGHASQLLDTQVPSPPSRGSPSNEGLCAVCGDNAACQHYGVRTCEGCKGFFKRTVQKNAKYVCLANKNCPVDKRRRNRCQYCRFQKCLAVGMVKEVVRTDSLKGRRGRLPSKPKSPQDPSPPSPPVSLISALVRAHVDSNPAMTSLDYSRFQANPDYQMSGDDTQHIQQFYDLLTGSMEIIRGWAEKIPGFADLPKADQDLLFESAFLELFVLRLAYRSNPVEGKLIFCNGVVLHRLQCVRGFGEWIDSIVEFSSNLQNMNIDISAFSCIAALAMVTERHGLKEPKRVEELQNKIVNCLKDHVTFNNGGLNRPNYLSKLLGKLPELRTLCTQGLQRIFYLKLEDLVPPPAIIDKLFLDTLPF
Chain of Nurr1 ligand binding domain (LBD) (P43354 360-595 limits assumed): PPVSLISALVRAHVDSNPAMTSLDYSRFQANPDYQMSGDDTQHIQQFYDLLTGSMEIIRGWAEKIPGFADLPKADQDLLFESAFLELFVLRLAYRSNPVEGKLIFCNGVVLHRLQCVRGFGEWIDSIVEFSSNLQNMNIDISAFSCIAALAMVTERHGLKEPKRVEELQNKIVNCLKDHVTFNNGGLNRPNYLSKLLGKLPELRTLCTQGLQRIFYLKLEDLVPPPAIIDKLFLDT

| Luciferase production, full-length Nurr1 NBRE reporter [2] | SMILES | Expression of th and vmat2 (th and vmat2 expression) | Binding to the Nurr1 LBD (in words) [1] |
| --- | --- | --- | --- |
|  | Oc1cc2cc[nH]c2cc1O [DHI, 5,6-dihydroxyindole] | stimulates the expression of th and vmat2 | forming a reversible covalent adduct with the side chain of Cys566 |
| perform as expected | CCN(CC)Cc1cc(Nc2ccnc3cc(Cl)ccc23)ccc1O [amodiaquine, reference compound] |  |  |
| perform as expected | N#Cc1ccc2[nH]ccc2c1 [5-cyanoindole, reference compound] |  |  |
